Assay results published in patent publication US20150105252A1, “SUBSTITUTED PYRAZOLES AS HERBICIDES” (E I DU PONT DE NEMOURS AND COMPANY, priority 2013, published 2015).

Columns and labels:
[1] = system: quackgrass; assay: Test E preemergence; type: in vivo, Elytrigia repens; conditions: 21 days, scale 0 to 100
Description: (§1) Seeds of plant species selected from bermudagrass (Cynodon dactylon), Surinam grass (Brachiaria decumbens), crabgrass, large (large crabgrass, Digitaria sanguinalis), crabgrass, naked (naked crabgrass, Digitaria nuda), foxtail, green (green foxtail, Setaria viridis), johnsongrass (Sorghum halepense), kochia (Kochia scoparia), morningglory (pitted morningglory, Ipomoea lacunosa), nutsedge, purple (purple nutsedge, Cyperus rotundus), ragweed (common ragweed, Ambrosia elation), mustard, black (black mustard, Brassica nigra), guineagrass (Panicum maximum), dallisgrass (Paspalum dilatatum), barnyardgrass (Echinochloa crus-galli), sandbur (southern sandbur, Cenchrus echinatus), sowthistle (common sowthistle, Sonchus oleraceous), ryegrass, Italian (Italian ryegrass, Lolium multiflorum), signalgrass (broadleaf signalgrass, Brachiaria platyphylla), dayflower, VA (Virginia (VA) dayflower, Commelina virginica), bluegrass (annual bluegrass, Poa annua), quackgrass (Elytrigia repens), mallow (common mallow, Malva sylvestris), buckwheat, wild (wild buckwheat, Polygonum convolvulus), leafy spurge (Euphorbia esula), common chickweed (Stellaria media), wild poinsettia (Euphorbia heterophylla), pigweed, palmer (palmer pigweed, Amaranthus palmeri), and pigweed (redroot pigweed, Amaranthus retroflexus) were planted into a blend of loam soil and sand and treated preemergence with test chemicals formulated in a non-phytotoxic solvent mixture which included a surfactant.
(§2) Treated plants and controls were maintained in a greenhouse for 21 days, after which time all species were compared to controls and visually evaluated. Plant response ratings, summarized in Table E, are based on a scale of 0 to 100 where 0 is no effect and 100 is complete control. A dash (-) response means no test result.

[2] = system: barnyardgrass; assay: Test E preemergence; type: in vivo, Echinochloa crus-galli; conditions: 21 days, scale 0 to 100
Description: as §1, §2

[3] = system: buckwheat, wild; assay: Test E preemergence; type: in vivo, Polygonum convolvulus; conditions: 21 days, scale 0 to 100
Description: as §1, §2

[4] = system: nutsedge, purple; assay: Test E preemergence; type: in vivo, Cyperus rotundus; conditions: 21 days, scale 0 to 100
Description: as §1, §2

[5] = system: crabgrass, naked; assay: Test E preemergence; type: in vivo, Digitaria nuda; conditions: 21 days, scale 0 to 100
Description: as §1, §2

[6] = system: morningglory; assay: Test E preemergence; type: in vivo, Ipomoea lacunosa; conditions: 21 days, scale 0 to 100
Description: as §1, §2

[7] = system: barnyardgrass; assay: Test C flooded paddy test; type: in vivo, Echinochloa crus-galli; conditions: Flood
Procedure, shortened: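 Test compounds are applied straight into paddy water held 3 cm above the soil surface, with that flood maintained for the whole test. After 13 to 15 days in the greenhouse, each species is scored visually relative to controls.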

[8] = 31 g ai/ha, scale 0 to 100 (0 no effect, 100 complete control)
[9] = 62 g ai/ha, scale 0 to 100 (0 no effect, 100 complete control)
[10] = 125 g ai/ha, scale 0 to 100 (0 no effect, 100 complete control)

Question: With `CCOc1cc(C(=O)NC2CC2)nn1Cc1ccnc(C(F)(F)F)c1` [Compound 189] as the compound, how does the “Plant response rating, Quackgrass” value ([1]; 4 g ai/ha) read?
Answer: Its value is 0.

Question: And the “Plant response rating, Quackgrass” value ([1]; 8 g ai/ha)?
Answer: The value was 0.

Question: What about the “Plant response rating, Quackgrass” value ([1]; 16 g ai/ha) of the same compound?
Answer: The value was 35.

Question: And the “Plant response rating, Quackgrass” value ([1]; 31 g ai/ha)?
Answer: The value was 75.

Question: And the “Plant response rating, Quackgrass” value ([1]; 62 g ai/ha)?
Answer: Its value is 100.

Question: What about the “Plant response rating, Barnyardgrass” value ([2]; 4 g ai/ha) of the same compound?
Answer: Its value is 0.

Question: What about the “Plant response rating, Barnyardgrass” value ([2]; 8 g ai/ha) of the same compound?
Answer: Its value is 0.

Question: What about the “Plant response rating, Barnyardgrass” value ([2]; 16 g ai/ha) of the same compound?
Answer: The value was 35.

Question: And the “Plant response rating, Barnyardgrass” value ([2]; 31 g ai/ha)?
Answer: The value was 100.

Question: What about the “Plant response rating, Barnyardgrass” value ([2]; 62 g ai/ha) of the same compound?
Answer: The value was 100.

Question: And the “Plant response rating, Buckwheat, Wild” value ([3]; 4 g ai/ha)?
Answer: The value was 70.

Question: What about the “Plant response rating, Buckwheat, Wild” value ([3]; 8 g ai/ha) of the same compound?
Answer: Its value is 100.

Question: And the “Plant response rating, Buckwheat, Wild” value ([3]; 16 g ai/ha)?
Answer: The value was 100.

Question: And the “Plant response rating, Buckwheat, Wild” value ([3]; 31 g ai/ha)?
Answer: Its value is 100.

Question: What about the “Plant response rating, Buckwheat, Wild” value ([3]; 62 g ai/ha) of the same compound?
Answer: Its value is 100.

Question: And the “Plant response rating, Nutsedge, Purple” value ([4]; 4 g ai/ha)?
Answer: The value was 0.

Question: What about the “Plant response rating, Nutsedge, Purple” value ([4]; 8 g ai/ha) of the same compound?
Answer: The value was 10.

Question: What about the “Plant response rating, Nutsedge, Purple” value ([4]; 16 g ai/ha) of the same compound?
Answer: The value was 50.

Question: What about the “Plant response rating, Nutsedge, Purple” value ([4]; 31 g ai/ha) of the same compound?
Answer: Its value is 50.

Question: What about the “Plant response rating, Nutsedge, Purple” value ([4]; 62 g ai/ha) of the same compound?
Answer: Its value is 85.

Question: What about the “Plant response rating, Crabgrass, Naked” value ([5]; 4 g ai/ha) of the same compound?
Answer: Its value is 40.

Question: What about the “Plant response rating, Crabgrass, Naked” value ([5]; 8 g ai/ha) of the same compound?
Answer: Its value is 95.

Question: And the “Plant response rating, Crabgrass, Naked” value ([5]; 16 g ai/ha)?
Answer: The value was 100.

Question: And the “Plant response rating, Crabgrass, Naked” value ([5]; 31 g ai/ha)?
Answer: The value was 100.

Question: And the “Plant response rating, Crabgrass, Naked” value ([5]; 62 g ai/ha)?
Answer: Its value is 100.

Question: What about the “Plant response rating, Morningglory” value ([6]; 4 g ai/ha) of the same compound?
Answer: The value was 0.

Question: And the “Plant response rating, Morningglory” value ([6]; 8 g ai/ha)?
Answer: The value was 30.

Question: And the “Plant response rating, Morningglory” value ([6]; 16 g ai/ha)?
Answer: Its value is 90.

Question: And the “Plant response rating, Morningglory” value ([6]; 31 g ai/ha)?
Answer: The value was 100.

Question: And the “Plant response rating, Morningglory” value ([6]; 62 g ai/ha)?
Answer: Its value is 100.

Question: How did the “Plant response rating, Barnyardgrass” value [7, 8] turn out when `CCONC(=O)c1cc(OCC)n(Cc2ccnc(C(F)(F)F)c2)n1` [Compound 195] was run?
Answer: Its value is 0.

Question: And the “Plant response rating, Barnyardgrass” value [7, 9]?
Answer: The value was 30.

Question: What about the “Plant response rating, Barnyardgrass” value [7, 10] of the same compound?
Answer: Its value is 40.

Question: And the “Plant response rating, Barnyardgrass” value ([7]; 250 g ai/ha, scale 0 to 100)?
Answer: Its value is 45.

Question: `CCc1cc(C(=O)NC2CC2)nn1Cc1ccnc(OCC(F)(F)F)c1` [Compound 200] was tested. Which “Plant response rating, Barnyardgrass” value [7, 8] did it give?
Answer: The value was 0.

Question: What about the “Plant response rating, Barnyardgrass” value [7, 9] of the same compound?
Answer: The value was 0.

Question: What about the “Plant response rating, Barnyardgrass” value [7, 10] of the same compound?
Answer: The value was 20.

Question: What about the “Plant response rating, Barnyardgrass” value ([7]; 250 g ai/ha, scale 0 to 100) of the same compound?
Answer: Its value is 40.

Question: Which results are given for `CCc1cc(C(=O)NC2CC2)nn1Cc1cc(C(F)(F)C(F)(F)F)nn1C` [Compound 226]?
Answer: Plant response rating, Barnyardgrass [7, 8]: 0; Plant response rating, Barnyardgrass [7, 9]: 0; Plant response rating, Barnyardgrass [7, 10]: 0
